Experimental findings from patent US20230416329A1, “A PEPTIDE WITH DISULFIDE BONDS AND INHIBITORY ACTIVITY AGAINST SERINE PROTEASES, DERIVED HYBRID PEPTIDES THEREOF, AND USES THEREOF” (INSTITUTE OF MATERIA MEDICA , CHINESE ACADEMY OF MEDICAL …, priority 2020, published 2023) are described below.

In this assay the target is T1, bovine trypsin (Bos taurus, UniProt P00760).
T1 sequence (P00760 24-246): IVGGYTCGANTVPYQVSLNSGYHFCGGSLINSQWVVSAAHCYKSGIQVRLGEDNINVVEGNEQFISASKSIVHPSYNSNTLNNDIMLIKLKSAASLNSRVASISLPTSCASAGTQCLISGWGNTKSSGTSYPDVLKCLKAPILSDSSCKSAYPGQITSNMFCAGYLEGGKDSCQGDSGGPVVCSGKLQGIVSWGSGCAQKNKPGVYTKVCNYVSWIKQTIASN
The experiment in a line: Trypsin inhibitory activity of peptides (BApNA hydrolysis, OD405; IC50, Ki, residual activity). The format is biochemical. The gist of the method: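 Trypsin (50 nM final) preincubated with peptides at 37 °C in 50 mM Tris-HCl pH 7.8, 20 mM CaCl2; BApNA added (1.22 mM final), 260 min at 37 °C, then OD405 read. Residual activity from enzyme-only and substrate-only controls; IC50 fitted and converted to Ki via Ki=IC50/(1+S/Km), Km measured separately for BApNA.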

Setting [1] is: Ki=IC50/(1+S/Km), Km 0.33 mM, read-out: Ki.
Setting [2] is: trypsin 50 nM, BApNA 1.22 mM, read-out: IC50.

Like-named read-outs stand apart in the source and are kept apart here. Bridge positions count the residues as written; N and C are the ends. Square brackets hold non-standard residues; d marks the D form. Peptide text beside a SMILES is read from it. Nle = CCCC[C@H](N)C(=O)O

The Ki is the dissociation constant of the complex between target and ligand, obtained from inhibition or displacement. Take `CC[C@H](C)[C@@H]1NC(=O)[C@H](CCCNC(=N)N)NC(=O)CNC(=O)[C@@H](N)CSSC[C@@H](C(=O)N[C@@H](Cc2ccccc2)C(=O)O)NC(=O)[C@H]([C@@H](C)CC)NC(=O)[C@@H]2CCCN2C(=O)[C@@H]2CCCN2C(=O)[C@H]([C@@H](C)CC)NC(=O)[C@H](CO)NC(=O)[C@H](CCCCN)NC(=O)[C@H]([C@@H](C)O)NC1=O` [BT49] (H-CGRITKSIPPICF-OH; disulfide 1-12; C-terminus assumed): the “inhibitory activity against trypsin (in words)” value (“inhibitory activity” for short) is “excellent trypsin inhibitory activities”. Further, under setting [1], the inhibition constant (Ki) stood at 110 nM.
Broadly, the IC50 is the concentration that inhibits the measured activity by half. In the case of `CCCC[C@@H]1NC(=O)[C@H](CCCNC(=N)N)NC(=O)CNC(=O)[C@@H](N)CSSC[C@@H](C(=O)N[C@@H](Cc2ccccc2)C(=O)O)NC(=O)[C@H]([C@@H](C)CC)NC(=O)[C@@H]2CCCN2C(=O)[C@@H]2CCCN2C(=O)[C@H]([C@@H](C)CC)NC(=O)[C@H](CO)NC(=O)[C@H](CCCCN)NC(=O)[C@H]([C@@H](C)O)NC1=O` [BT50] (H-CGR[Nle]TKSIPPICF-OH; disulfide 1-12; C-terminus assumed), the “inhibitory activity” value was “good inhibitory activities against trypsin”. Besides, the Ki under setting [1] was 10 nM. Also, the “inhibitory activity” value (listed as SEQ ID NO: 50) is “excellent trypsin inhibitory activities”. For the same molecule, under “peptide 0.000098 μM”, the Residual trypsin activity was 106.1 ± 2.6%. For the same molecule, for the setting “peptide 0.00098 μM”, the Residual trypsin activity is 108.5 ± 1.0%. For the same molecule, the Residual trypsin activity (peptide 0.0098 μM) was 105.0 ± 3.9%. Besides, the Residual trypsin activity (peptide 0.0488 μM) stood at 73.5 ± 1.6%. Besides, under “peptide 0.0780 μM”, the Residual trypsin activity is 48.9 ± 1.8%. The Residual trypsin activity (peptide 0.098 μM) turned out to be 22.6 ± 5.7%. For the same molecule, under “peptide 0.98 μM”, the Residual trypsin activity was found to be 0.1 ± 0.0%. Moreover, where the note is “peptide 9.76 μM”, the Residual trypsin activity is listed as 0.0 ± 0.1%. For the setting “peptide 97.56 μM”, the Residual trypsin activity is on record as 0.0 ± 0.1%. For the same molecule, under setting [2], the half-inhibitory concentration (IC50) turned out to be 70 nM.
In the case of `CC[C@H](C)[C@@H]1NC(=O)[C@@H]2CCCN2C(=O)[C@@H]2CCCN2C(=O)[C@H]([C@@H](C)CC)NC(=O)[C@H](CO)NC(=O)[C@H](CCCCN)NC(=O)[C@H]([C@@H](C)O)NC(=O)[C@H](C(C)C)NC(=O)[C@H](CCCNC(=N)N)NC(=O)CNC(=O)[C@@H](N)CSSC[C@@H](C(=O)N[C@@H](Cc2ccccc2)C(=O)O)NC1=O` [BT51] (H-CGRVTKSIPPICF-OH; disulfide 1-12), the “inhibitory activity” value is recorded as “excellent trypsin inhibitory activities”. Moreover, the Ki under setting [1] came out at 90 nM.
On to `CC[C@H](C)[C@@H]1NC(=O)[C@@H]2CCCN2C(=O)[C@@H]2CCCN2C(=O)[C@H]([C@@H](C)CC)NC(=O)[C@H](CO)NC(=O)[C@H](CCCCN)NC(=O)[C@H]([C@@H](C)O)NC(=O)[C@H](Cc2ccccc2)NC(=O)[C@H](CCCNC(=N)N)NC(=O)CNC(=O)[C@@H](N)CSSC[C@@H](C(=O)N[C@@H](Cc2ccccc2)C(=O)O)NC1=O` [BT52] (H-CGRFTKSIPPICF-OH; disulfide 1-12; N-terminus and C-terminus assumed), for which the Ki under setting [1] stood at 30 nM. For the same molecule, the IC50 under setting [2] is 130 nM.
Take `CC[C@H](C)[C@@H]1NC(=O)[C@@H]2CCCN2C(=O)[C@@H]2CCCN2C(=O)[C@H]([C@@H](C)CC)NC(=O)[C@H](CO)NC(=O)[C@H](CCCCN)NC(=O)[C@H]([C@@H](C)O)NC(=O)[C@H](Cc2ccc(O)cc2)NC(=O)[C@H](CCCNC(=N)N)NC(=O)CNC(=O)[C@@H](N)CSSC[C@@H](C(=O)N[C@@H](Cc2ccccc2)C(=O)O)NC1=O` [BT53] (H-CGRYTKSIPPICF-OH; disulfide 1-12; C-terminus assumed): it took 120 nM to reach half-maximal inhibition (IC50), the Ki stood at 30 nM and the “inhibitory activity” value was “good inhibitory activities against trypsin”. The “inhibitory activity” value (listed as SEQ ID NO: 53) was “excellent trypsin inhibitory activities”. The Residual trypsin activity (peptide 0.000098 μM) is listed as 104.2 ± 0.5%. Besides, where the note is “peptide 0.00098 μM”, the Residual trypsin activity amounted to 108.9 ± 2.0%. The Residual trypsin activity (peptide 0.0098 μM) amounted to 106.0 ± 0.4%. For the same molecule, the Residual trypsin activity (peptide 0.0488 μM) is on record as 87.4 ± 4.9%. Moreover, the Residual trypsin activity (peptide 0.0585 μM) turned out to be 84.9 ± 2.2%. In addition, the Residual trypsin activity (peptide 0.07317 μM) stood at 75.2 ± 2.8%. The Residual trypsin activity (peptide 0.098 μM) is recorded as 63.0 ± 1.9%. In addition, the Residual trypsin activity (peptide 0.98 μM) is 0.5 ± 0.2%. The Residual trypsin activity (peptide 9.76 μM) came to 0.2 ± 0.0%. The Residual trypsin activity (peptide 97.56 μM) was 0.0 ± 0.1%.
Consider `CC[C@H](C)[C@@H]1NC(=O)[C@@H]2CCCN2C(=O)[C@@H]2CCCN2C(=O)[C@H]([C@@H](C)CC)NC(=O)[C@H](CO)NC(=O)[C@H](CCCCN)NC(=O)[C@H]([C@@H](C)O)NC(=O)[C@H](CCC(N)=O)NC(=O)[C@H](CCCNC(=N)N)NC(=O)CNC(=O)[C@@H](N)CSSC[C@@H](C(=O)N[C@@H](Cc2ccccc2)C(=O)O)NC1=O` [BT54] (H-CGRQTKSIPPICF-OH; disulfide 1-12; C-terminus assumed), for which the “inhibitory activity” value was “good inhibitory activities against trypsin”. The inhibition constant Ki under setting [1] turned out to be 10 nM. The “inhibitory activity” value (listed as SEQ ID NO: 54) was “excellent trypsin inhibitory activities”. The Residual trypsin activity (peptide 0.000098 μM) worked out at 101.0 ± 3.9%. Moreover, the Residual trypsin activity (peptide 0.00098 μM) was 99.2 ± 1.7%. Also, the Residual trypsin activity (peptide 0.0098 μM) was found to be 99.9 ± 4.1%. Also, the Residual trypsin activity (peptide 0.0488 μM) stood at 65.8 ± 6.7%. For the same molecule, where the note is “peptide 0.0585 μM”, the Residual trypsin activity came to 58.4 ± 4.3%. The Residual trypsin activity (peptide 0.0780 μM) turned out to be 24.3 ± 2.4%. Further, the Residual trypsin activity (peptide 0.098 μM) is 7.2 ± 2.4%. Besides, where the note is “peptide 0.98 μM”, the Residual trypsin activity amounted to 0.1 ± 0.0%. Where the note is “peptide 9.76 μM”, the Residual trypsin activity is recorded as −0.1 ± 0.0%. For the same molecule, under setting [2], the IC50 is 60 nM.
Consider `CC[C@H](C)[C@@H]1NC(=O)[C@@H]2CCCN2C(=O)[C@@H]2CCCN2C(=O)[C@H]([C@@H](C)CC)NC(=O)[C@H](CO)NC(=O)[C@H](CCCCN)NC(=O)[C@H]([C@@H](C)O)NC(=O)[C@H](CC(N)=O)NC(=O)[C@H](CCCNC(=N)N)NC(=O)CNC(=O)[C@@H](N)CSSC[C@@H](C(=O)N[C@@H](Cc2ccccc2)C(=O)O)NC1=O` [BT55] (H-CGRNTKSIPPICF-OH; disulfide 1-12; C-terminus assumed), for which the “inhibitory activity” value is reported as “excellent trypsin inhibitory activities”. Besides, the inhibitory constant (Ki) under setting [1] worked out at 60 nM.
In the case of `CC[C@H](C)[C@@H]1NC(=O)[C@@H]2CCCN2C(=O)[C@@H]2CCCN2C(=O)[C@H]([C@@H](C)CC)NC(=O)[C@H](CO)NC(=O)[C@H](CCCCN)NC(=O)[C@H]([C@@H](C)O)NC(=O)[C@H](Cc2c[nH]cn2)NC(=O)[C@H](CCCNC(=N)N)NC(=O)CNC(=O)[C@@H](N)CSSC[C@@H](C(=O)N[C@@H](Cc2ccccc2)C(=O)O)NC1=O` [BT56] (H-CGRHTKSIPPICF-OH; disulfide 1-12; N-terminus and C-terminus assumed), the Ki under setting [1] is 20 nM. Also, the IC50 under setting [2] is 110 nM.
As for `CC[C@H](C)[C@@H]1NC(=O)[C@@H]2CCCN2C(=O)[C@@H]2CCCN2C(=O)[C@H]([C@@H](C)CC)NC(=O)[C@H](CO)NC(=O)[C@H](CCCCN)NC(=O)[C@H]([C@@H](C)O)NC(=O)[C@H](Cc2c[nH]c3ccccc23)NC(=O)[C@H](CCCNC(=N)N)NC(=O)CNC(=O)[C@@H](N)CSSC[C@@H](C(=O)N[C@@H](Cc2ccccc2)C(=O)O)NC1=O` [BT57] (H-CGRWTKSIPPICF-OH; disulfide 1-12; C-terminus assumed), the “inhibitory activity” value is listed as “excellent trypsin inhibitory activities”. The Ki under setting [1] turned out to be 30 nM. Under setting [2], the half-inhibitory concentration (IC50) was found to be 130 nM.
